Assay results taken from US6998395B2, “Administration of estradiol metabolites for the treatment or prevention of obesity, metabolic syndrome, diabetes, and vascular and renal disorders” (University of Pittsburg,, priority 2001, dated 2006).

Experiments:
[1] = tested on: male ZSF1 rats; test: Treatment of male ZSF1 rats for 24 weeks with 2-hydroxyestradiol or 2-methoxyestradiol; type: in vivo, rat; conditions: 10 ug/kg/hr, 28 weeks, versus control animals
[2] = tested on: male ZSF1 rats; test: as above; type: in vivo, rat
Protocol: Male ZSF1 rats were treated continuously for 24 weeks with polyethylene glycol 400 (PEG 400) (Sigma, St. Louis, Mo.) or one of three doses of 2-hydroxyestradiol or 2-methoxyestradiol (Steraloids, Inc. Newport, R.I.) dissolved in PEG 400. The three doses were 1 ug/kg/hr, 3 ug/kg/hr or 10 ug/kg/hr. Female ZSF1 rats were treated continuously for 24 weeks with either PEG 400 or 10 ug/kg/hr of 2-hydroxyestradiol. Female ZSF1 rats were ovarectomized at 11 weeks of age. For all animals, both male and female, treatments with estradiol metabolites were begun at approximately 13 weeks of age. One group of male ZSF1 rats received only PEG 400 but were pair fed to receive the same daily food intake as the male ZSF1 rats treated with 10 ug/kg/hr 2-hydroxyestradiol. Treatment was administered via subcutaneous implanted pumps (Alzet Osmotic Pump, Model 2ML4, Alza Corporation, Palo Alto, Calif.). The study was designed to evaluate treatment effects and dose responses on body weight, food intake, water intake, urine output, urinary protein excretion, cholesterol levels, plasma glucose levels and glucose tolerance.
Stock solutions of both 2-hydroxyestradiol and 2-methoxyestradiol were made by dissolving the required amount of estradiol metabolite in PEG 400. This solution was diluted in PEG 400 to deliver the three required doses based on the mean weight of each treatment group and the stated volume delivery rate for each lot of osmotic pumps in the study. This stock solution was prepared fresh prior to each osmotic pump implantation in each group. The control solution of PEG 400 was created in the same manner.
All treatments were administered via a subcutaneously implanted osmotic pump (Alzet Osmotic Pump, Model 2ML4, Alza Corporation, Palo Alto, Calif.). Each lot of osmotic pumps were delivered with the stated rate of delivery and formulation concentrations were adjusted to ensure delivery of 1,3, or 10 ug/kg/hr based on the stated rate of delivery of each lot. Doses were adjusted for the mean weight of the animals in the treatment group obtained 24 hours prior to implantation of the osmotic minipump.
Animals were anesthetized prior to implantation of an osmotic minipump with halothane and oxygen (2.5 liter/min) delivered by a Fluotec 3 anesthetic device (Ohmeda, Steeton, UK). After lightly anesthetizing each animal, implantation was accomplished by shaving the back and creating a half-inch incision in which to insert the osmotic minipump. The incision was then closed with wound clips that were removed in seven days. Osmotic minipumps were replaced at 33-day intervals and each time a particular animal received an osmotic minipump, the insertion point was changed.
Metabolic cages (Nalgene, Rochester, N.Y.) were used in this study. Animals were placed in metabolic cages for 48 hours. The first 24-hour period was considered an acclimation period, while food and fluid intake and urine volume were measured during the second 24-hour period. Additionally, a tail vein sample was obtained to measure blood glucose, sodium, potassium, albumin and creatinine. The blood was further analyzed to assess creatinine clearance, fractional sodium excretion, fractional potassium excretion and fractional albumin excretion. In addition, the following criteria were also assessed while the animals were in the metabolic cages: body weight, feed intake, water intake, urine output, urinary protein, urinary albumin, urinary glucose, urinary sodium and urinary potassium.
Body weights were assessed 24 hours before pump implantation and those weights were used to calculate the dosage of drug or vehicle to be given to each animal based on the mean body weight of each group. Animals were weighed approximately once every two months prior to being placed in a metabolic cage.
Food intake was measured by filling the food containers with standard powder laboratory food up to a total weight of 250 grams. […]

[3] = tested on: rats; conditions: Oparil et al., Circulation 95:1301 (1997); cited from earlier work
[4] = Kernan et al., 2000; cited from earlier work
[5] = male, 10 ug/kg/hr, 24 weeks, versus control animals
[6] = male, 1, 3 or 10 ug/kg/hr s.c. osmotic pump, 24 weeks, versus control

Compound: COc1cc2c(cc1O)CC[C@@H]1[C@@H]2CC[C@]2(C)[C@@H](O)CC[C@@H]12 [2-methoxyestradiol, estra-1,3,5 (10)-triene-2-methoxy-3,17-diol (17β)]
- Glycated hemoglobin (HbA1c) (FIG. 14) [1]: lower
- Leptin levels (FIG. 11) ([2]; male, 10 ug/kg/hr, 20 weeks, versus control animals): clearly reduced
- 24-hour urine output (FIG. 13) [2, 5]: lower
- 24-hour water intake (FIG. 12) [2, 5]: lower
- Blood urea nitrogen (FIG. 10) ([2]; male, 10 ug/kg/hr, 24 weeks, versus control groups): lower
- Plasma level of glucose after administration of 2 g/4 ml/kg glucose (oral glucose tolerance test, FIGS. 8 and 9) ([2]; male, 10 ug/kg/hr, treated for 14 to 15 weeks, versus control groups): lower
- Body weight gain (FIGS. 4 and 5) [2, 6]: less body weight gain
- Food intake [2, 6]: lower food intake
- Urinary protein excretion (FIG. 7) ([2]; male, 1, 3 or 10 ug/kg/hr, after 24 weeks of treatment, versus control animals): lower

Compound: C[C@]12CC[C@@H]3c4ccc(O)cc4CC[C@H]3[C@@H]1CC[C@@H]2O [17β-estradiol]
- Body weight of rats [3]: reduction
- Vascular protection [3]: vascular protection

Compound: CC(N)C(O)c1ccccc1 (stereo not drawn) [phenylpropanolamine]
- Adverse effect (stroke) [4]: causes stroke
